Test results published in patent publication US20230123334A1, “AMINO LIPID COMPOUND, PREPARATION METHOD THEREFOR, AND APPLICATION THEREOF” (SHENZHEN SHENXIN BIOTECHNOLOGY CO., LTD., priority 2020, published 2023).

What was measured:
HEK293 cells [1] = assay: Preliminary screening as DNA vectors, GFP transfection of HEK293 cells; assay type: cell-based; conditions: HEK293 cells; lipid/DOPE liposome with 75 ng plasmid DNA (psin-EGFP-IRES-Puro); number of cells expressing GFP divided by total number of nuclei (Hoechst)
Summary of the method: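 HEK293 cells in DMEM/10% FBS transfected with 75 ng EGFP plasmid per well complexed with amino lipid/DOPE liposomes in pH 5.6 sodium acetate. Hoechst nuclear stain added 20-24 h post-transfection, then cells cultured another 20-24 h. Confocal imaging gives GFP-positive cells as % of total nuclei.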

HEK293 cells [2] = assay: Preliminary screening as mRNA vectors, EGFP mRNA transfection of HEK293 cells; assay type: cell-based; conditions: HEK293 cells, 96-well plates, EGFP mRNA 50 ng per well; percentage of GFP fluorescent cells relative to total number of cells (Hoechst)
Summary of the method: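 HEK293 cells in DMEM plus 10% FBS transfected in 96-well format with 50 ng EGFP mRNA per well; Lipofectamine2000 served as positive control. Read-out is the percentage of GFP-fluorescent cells among total cells, counted by Hoechst nuclear stain.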

Structure (SMILES)	Absolute DNA transfection efficiency in HEK293 cells (HEK293 cells [1])	Absolute mRNA transfection efficiency in HEK293 cells (HEK293 cells [2])
CCCCCCCCCCCSc1nc(NCCN(CC)CC)nc(SCCCCCCCCCC)n1 [Compound S10S11D7]	7.3%	1.8%
CCCCCCCCCCCSc1nc(NCCCN2CCOCC2)nc(SCCCCCCCCCC)n1 [Compound S10S11D8]	16.4%	8.3%
CCCCCCCCCCCSc1nc(NCCCN2CCN(C)CC2)nc(SCCCCCCCCCC)n1 [Compound S10S11D9]	13.6%	60.6%
CCCCCCCCCCCSc1nc(NCC2CCN(C)CC2)nc(SCCCCCCCCCC)n1 [Compound S10S11D10]	13.3%	93.7%
CCCCCCCCCCCCSc1nc(NCCN(C)C)nc(SCCCCCCCCCC)n1 [Compound S10S12D1]	6.6%	0.0%
CCCCCCCCCCCCSc1nc(NCCN2CCOCC2)nc(SCCCCCCCCCC)n1 [Compound S10S12D2]	2.4%	0.0%
CCCCCCCCCCCCSc1nc(NCCN2CCCC2)nc(SCCCCCCCCCC)n1 [Compound S10S12D3]	8.2%	7.6%
CCCCCCCCCCCCSc1nc(NCCN2CCCCC2)nc(SCCCCCCCCCC)n1 [Compound S10S12D4]	12.0%	3.4%
CCCCCCCCCCCCSc1nc(NCCN2CCN(C)CC2)nc(SCCCCCCCCCC)n1 [Compound S10S12D5]	9.8%	33.5%
CCCCCCCCCCCCSc1nc(NCCCN(C)C)nc(SCCCCCCCCCC)n1 [Compound S10S12D6]	16.2%	82.4%
CCCCCCCCCCCCSc1nc(NCCN(CC)CC)nc(SCCCCCCCCCC)n1 [Compound S10S12D7]	7.2%	0.0%
CCCCCCCCCCCCSc1nc(NCCCN2CCOCC2)nc(SCCCCCCCCCC)n1 [Compound S10S12D8]	20.9%	5.4%
CCCCCCCCCCCCSc1nc(NCCCN2CCN(C)CC2)nc(SCCCCCCCCCC)n1 [Compound S10S12D9]	28.1%	53.7%
CCCCCCCCCCCCSc1nc(NCC2CCN(C)CC2)nc(SCCCCCCCCCC)n1 [Compound S10S12D10]	13.7%	91.0%
CCCCCCCCCCCCCCSc1nc(NCCN(C)C)nc(SCCCCCCCCCC)n1 [Compound S10S14D1]	8.5%	0.1%
CCCCCCCCCCCCCCSc1nc(NCCN2CCOCC2)nc(SCCCCCCCCCC)n1 [Compound S10S14D2]	1.5%	0.2%
CCCCCCCCCCCCCCSc1nc(NCCN2CCCC2)nc(SCCCCCCCCCC)n1 [Compound S10S14D3]	7.9%	0.6%
CCCCCCCCCCCCCCSc1nc(NCCN2CCCCC2)nc(SCCCCCCCCCC)n1 [Compound S10S14D4]	5.9%	0.2%
CCCCCCCCCCCCCCSc1nc(NCCN2CCN(C)CC2)nc(SCCCCCCCCCC)n1 [Compound S10S14D5]	15.7%	12.9%

Structure (SMILES)	Absolute DNA transfection efficiency in HEK293 cells (HEK293 cells [1])	Absolute mRNA transfection efficiency in HEK293 cells (HEK293 cells [2])
CCCCCCCCCCCCCCSc1nc(NCCCN(C)C)nc(SCCCCCCCCCC)n1 [Compound S10S14D6]	26.9%	48.6%
CCCCCCCCCCCCCCSc1nc(NCCN(CC)CC)nc(SCCCCCCCCCC)n1 [Compound S10S14D7]	2.6%	1.3%
CCCCCCCCCCCCCCSc1nc(NCCCN2CCOCC2)nc(SCCCCCCCCCC)n1 [Compound S10S14D8]	18.9%	7.5%
CCCCCCCCCCCCCCSc1nc(NCCCN2CCN(C)CC2)nc(SCCCCCCCCCC)n1 [Compound S10S14D9]	3.9%	5.7%
CCCCCCCCCCCCCCSc1nc(NCC2CCN(C)CC2)nc(SCCCCCCCCCC)n1 [Compound S10S14D10]	23.0%	37.7%
CCCCCCCCCCCCCCCSc1nc(NCCN(C)C)nc(SCCCCCCCCCC)n1 [Compound S10S15D1]	6.8%	0.0%
CCCCCCCCCCCCCCCSc1nc(NCCN2CCOCC2)nc(SCCCCCCCCCC)n1 [Compound S10S15D2]	7.7%	0.7%
CCCCCCCCCCCCCCCSc1nc(NCCN2CCCC2)nc(SCCCCCCCCCC)n1 [Compound S10S15D3]	7.6%	19.6%
CCCCCCCCCCCCCCCSc1nc(NCCN2CCCCC2)nc(SCCCCCCCCCC)n1 [Compound S10S15D4]	7.5%	0.7%
CCCCCCCCCCCCCCCSc1nc(NCCN2CCN(C)CC2)nc(SCCCCCCCCCC)n1 [Compound S10S15D5]	3.7%	9.4%
CCCCCCCCCCCCCCCSc1nc(NCCCN(C)C)nc(SCCCCCCCCCC)n1 [Compound S10S15D6]	32.8%	24.6%
CCCCCCCCCCCCCCCSc1nc(NCCN(CC)CC)nc(SCCCCCCCCCC)n1 [Compound S10S15D7]	7.2%	0.0%
CCCCCCCCCCCCCCCSc1nc(NCCCN2CCOCC2)nc(SCCCCCCCCCC)n1 [Compound S10S15D8]	15.2%	11.1%
CCCCCCCCCCCCCCCSc1nc(NCCCN2CCN(C)CC2)nc(SCCCCCCCCCC)n1 [Compound S10S15D9]	3.9%	3.8%
CCCCCCCCCCCCCCCSc1nc(NCC2CCN(C)CC2)nc(SCCCCCCCCCC)n1 [Compound S10S15D10]	55.8%	19.4%
CCCCCCCCCCCCCCCCSc1nc(NCCN(C)C)nc(SCCCCCCCCCC)n1 [Compound S10S16D1]	7.2%	0.1%
CCCCCCCCCCCCCCCCSc1nc(NCCN2CCOCC2)nc(SCCCCCCCCCC)n1 [Compound S10S16D2]	0.1%	0.3%
CCCCCCCCCCCCCCCCSc1nc(NCCN2CCCC2)nc(SCCCCCCCCCC)n1 [Compound S10S16D3]	9.5%	1.7%
